Experimental data taken from PubChem BioAssay AID2060616 (Molecular Pharmacology Branch, DTP, NCI, 2025).

Tested on: 377384-186-R-J1-PDC complex spheroid viability
Assay: Anticancer human tumor 377384-186-R-J1-PDC patient-derived pancreatic carcinoma cell line growth inhibition [CLK]
Settings: for IC50: curve of first compound; for viability, T/C: stronger effect = lower value
In short: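 Patient-derived tumor cells grown as complex spheroids with HUVEC endothelial cells and mesenchymal stem cells, treated with drug combinations. Concentrations descend in half-log steps from near clinical Cmax, or from 10 microM if Cmax unknown.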

[1] = second compound 0.0316 µM, first compound 0.0316 µM
[2] = second compound 0.0316 µM, first compound 0.1 µM
[3] = second compound 0.0316 µM, first compound 0.316 µM
[4] = second compound 0.0316 µM, first compound 1 µM
[5] = second compound 0.0316 µM, first compound 3.16 µM
[6] = second compound 0.0316 µM, first compound 10 µM
[7] = second compound 0.1 µM, first compound 0.0316 µM
[8] = second compound 0.1 µM, first compound 0.1 µM
[9] = second compound 0.1 µM, first compound 0.316 µM
[10] = second compound 0.1 µM, first compound 1 µM
[11] = second compound 0.1 µM, first compound 3.16 µM
[12] = second compound 0.1 µM, first compound 10 µM
[13] = second compound 0.316 µM, first compound 0.0316 µM
[14] = second compound 0.316 µM, first compound 0.1 µM
[15] = second compound 0.316 µM, first compound 0.316 µM
[16] = second compound 0.316 µM, first compound 1 µM
[17] = second compound 0.316 µM, first compound 3.16 µM
[18] = second compound 0.316 µM, first compound 10 µM
[19] = second compound 1 µM, first compound 0.0316 µM
[20] = second compound 1 µM, first compound 0.1 µM
[21] = second compound 1 µM, first compound 0.316 µM
[22] = second compound 1 µM, first compound 1 µM
[23] = second compound 1 µM, first compound 3.16 µM
[24] = second compound 1 µM, first compound 10 µM
[25] = second compound 3.16 µM, first compound 0.0316 µM
[26] = second compound 3.16 µM, first compound 0.1 µM
[27] = second compound 3.16 µM, first compound 0.316 µM
[28] = second compound 3.16 µM, first compound 1 µM
[29] = second compound 3.16 µM, first compound 3.16 µM
[30] = second compound 3.16 µM, first compound 10 µM
[31] = second compound 10 µM, first compound 0.0316 µM
[32] = second compound 10 µM, first compound 0.1 µM
[33] = second compound 10 µM, first compound 0.316 µM
[34] = second compound 10 µM, first compound 1 µM
[35] = second compound 10 µM, first compound 3.16 µM
[36] = second compound 10 µM, first compound 10 µM
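Further: spheroids exposed to agents for 7 days before reading.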
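Wherever viability, T/C is given: luminescence signal used as a stand-in for viable cells.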

CCCS(=O)(=O)Nc1ccc(F)c(C(=O)c2c[nH]c3ncc(-c4ccc(Cl)cc4)cc23)c1F + CN1CCN(c2cc(C(=O)Nc3cc4cc(-c5cnn(C)c5)ccc4cn3)ccn2)CC1
IC50 (second compound 0.0316 µM): > 10000 nM | IC50 (second compound 0.1 µM): 8850 nM | IC50 (second compound 0.316 µM): < 31.6 nM | IC50 (second compound 1 µM): < 31.6 nM | IC50 (second compound 3.16 µM): < 31.6 nM | IC50 (second compound 10 µM): < 31.6 nM | viability, T/C [1]: 122% | viability, T/C [2]: 122% | viability, T/C [3]: 141% | viability, T/C [4]: 140% | viability, T/C [5]: 117% | viability, T/C [6]: 64.8% | viability, T/C [7]: 117% | viability, T/C [8]: 78.5% | viability, T/C [9]: 135% | viability, T/C [10]: 121% | viability, T/C [11]: 97.1% | viability, T/C [12]: 44.4% | viability, T/C [13]: 34.8% | viability, T/C [14]: 21.6% | viability, T/C [15]: 31.2% | viability, T/C [16]: 33.4% | viability, T/C [17]: 28.9% | viability, T/C [18]: 15.4% | viability, T/C [19]: 1.07% | viability, T/C [20]: 3.44% | viability, T/C [21]: 1.53% | viability, T/C [22]: 1.74% | viability, T/C [23]: 1.66% | viability, T/C [24]: 1.39% | viability, T/C [25]: 0.5% | viability, T/C [26]: 0.57% | viability, T/C [27]: 1.26% | viability, T/C [28]: 0.82% | viability, T/C [29]: 0.51% | viability, T/C [30]: 0.48% | viability, T/C [31]: 0.54% | viability, T/C [32]: 0.62% | viability, T/C [33]: 0.58% | viability, T/C [34]: 0.68% | viability, T/C [35]: 0.66% | viability, T/C [36]: 0.26%

Nc1ccccc1NC(=O)c1ccc(CNC(=O)OCc2cccnc2)cc1 + CNC(=O)c1ccc(Nc2nc(OC3CCCC3)c3c(-c4ccc5nc(C)oc5c4)c[nH]c3n2)c(OC)c1
IC50 (second compound 0.0316 µM): 434 nM | IC50 (second compound 0.1 µM): 128 nM | IC50 (second compound 0.316 µM): < 31.6 nM | IC50 (second compound 1 µM): < 31.6 nM | IC50 (second compound 3.16 µM): < 31.6 nM | IC50 (second compound 10 µM): < 31.6 nM | viability, T/C [1]: 94.4% | viability, T/C [2]: 75.5% | viability, T/C [3]: 62.5% | viability, T/C [4]: 26.7% | viability, T/C [5]: 11.9% | viability, T/C [6]: 1.2% | viability, T/C [7]: 57.9% | viability, T/C [8]: 57.2% | viability, T/C [9]: 35.9% | viability, T/C [10]: 30.2% | viability, T/C [11]: 12.3% | viability, T/C [12]: 1.53% | viability, T/C [13]: 24.8% | viability, T/C [14]: 23.2% | viability, T/C [15]: 18% | viability, T/C [16]: 19.4% | viability, T/C [17]: 9.99% | viability, T/C [18]: 1.4% | viability, T/C [19]: 22.6% | viability, T/C [20]: 23% | viability, T/C [21]: 19.7% | viability, T/C [22]: 21.5% | viability, T/C [23]: 12.6% | viability, T/C [24]: 1.83% | viability, T/C [25]: 20.9% | viability, T/C [26]: 21.6% | viability, T/C [27]: 21.7% | viability, T/C [28]: 16.9% | viability, T/C [29]: 12.1% | viability, T/C [30]: 0.82% | viability, T/C [31]: 20.6% | viability, T/C [32]: 22.9% | viability, T/C [33]: 19% | viability, T/C [34]: 18.6% | viability, T/C [35]: 13.7% | viability, T/C [36]: 1.29%
